Series [1] has as its system Molt4 lymphoid human cells. As to the kind of experiment: Panobistat (LBH589)-induced cell death in Molt4 cells (propidium iodide, flow cytometry). As to conditions: Molt4, 1 h pretreatment (30 µM or indicated doses), 25 nM LBH589 24 h. Format: cell-based. The protocol: (§1) HeLa cells (obtained from ATCC) were cultured in Dulbecco’s Modified Eagle Medium (DMEM, High Glucose, GlutaMAX™, Pyruvate) supplemented with antibiotics and 10% fetal calf serum (FCS) (Gibco, Life Technologies) and maintained in T75 Flasks at 1 × 10^6 cells per flask. Twenty-four hours before treatments, HeLa cells were transferred to 6-well plates (8 × 10^4 cells/well). The lymphoblastoid cell line Molt4cl8 was a gift from Dr. Bernard Krust (Inserm, University Paris 5) and was cultured in RPMI 1640 Glutamax medium supplemented with Hepes, antibiotics, and 10% FCS. HEK293 cells were obtained from ATCC (CRL-1573) and cultured in DMEM with Glutamax and 25 mM glucose (Life Technologies) supplemented with 10% FCS and antibiotics. For cell death induction, the following agents were added to cell cultures: Vincristine (Sigma) and Panobistat (LBH589; Selleck). Cell death was analyzed using fluorescence microscopy (Axio-observer Z1, Zeiss; equipped with CCD camera CoolsnapHQ2, Ropert Scientific) and cytofluorometry (MACSQuant® VYB; Miltenyi Biotec, Bergisch Gladbach, Germany) after labeling with propidium iodide (1 µg/mL; 10 min; 37 °C; Life Technologies) and Hoechst 33342 (1 µg/mL; 5 min; RT; Sigma).
Fig. 5 LJ2 inhibits cell death induced by microtubule destabilization and hydroxamic acid-based deacetylase (HDAC) inhibition. a Effect of the irreversible Caspase-2 inhibitors LJ2 against vincristine-induced cell death. HeLa cells were pretreated for 1 h with the indicated doses of LJ2, Q-VD-OPh, or Q-LETD-OPh, then treated with vincristine (VCR) as in Fig. 2, then incubated with propidium iodide at 2 μg/mL for 10 min and analyzed by flow cytometry. […] Molt4 lymphoid human cells where were pretreated for 1 h with 30 µM of LJ2, Q-VD-OPh, or Belnacasan (VX-765), then treated for 24 h with 25 nM of LBH589, then incubated with propidium iodide as in (a) and analyzed by flow cytometry. […] Molt4 cells were treated as in (b) with the indicated doses of LJ2 or Q-VD-OPh and analyzed by flow cytometry. […]
In general terms: Flow cytometry measures light scatter and fluorescence of single cells or particles in a stream.

Another series concerns HeLa cells. Put plainly: Vincristine-induced HeLa cell death (propidium iodide, flow cytometry). The series is classed as cell-based, human. The settings on record: 1 h pretreatment, 20 nM vincristine 44 h. The method, then: as §1
Fig. 2 q33 and h33 are protective against the cytocidal effect of Vincristine. a Vincristine induces HeLa cell death. Cells were incubated for 44 h at 37 °C with 20 nM Vincristine (VCR), then incubated with propidium iodide at 2 μg/mL for 10 min and analyzed by flow cytometry to quantify plasma membrane permeabilization. Histograms show fluorescence intensity detected by flow cytometry (one representative experiment) in the presence (VCR) or Absence (Co.) of Vincristine. % of propidium iodide-positive cells are indicated for both conditions. b Dose–response of Vincristine-induced cell death. HeLa cells were incubated and treated as in (a) with the indicated doses of Vincristine (VCR) and analyzed by flow cytometry. […] Representative fluorescence microscopy micrographs of cells treated for 44 h with 20 nM vincristine (VCR) or not (Co.) and stained with Hoechst 33342. Vincristine induces progressive nuclear changes with first condensed nuclei (arrows) and then apoptotic bodies (dashed arrow). d Broad-spectrum irreversible caspase inhibitors prevent vincristine-induced cell death. HeLa cells were pretreated for 1 hr with the indicated broad-spectrum irreversible caspases inhibitors (z-VAD(OMe)-fmk at 30 μM, Q-VD-OPh 30 μM, Emricasan 10 μM, or the negative control Q-VE-OPh 30 μM), then treated with vincristine as in panel (a), and analyzed by flow cytometry. Histograms show the mean ± SD of 3 independent experiments (***p value < 0.001). e Effect of the reversible Caspase-2 inhibitors q33 and h33 against vincristine-induced cell death. HeLa cells were pretreated for 1 h with the indicated doses of q33 or h33, then treated with vincristine as in panel a, and analyzed by flow cytometry. Histograms show the mean ± SD of three independent experiments (*p value < 0.1). TEXT PRINTED IN THE PICTURE: (a) VCR: 39,5 % DOUBTS OF THE COPYIST ABOUT THIS PICTURE: Panel a: the picture prints no measure beside "39,5 %" and "4.1%". I assigned 39,5 % to VCR only because it stands by the grey VCR peak. / Panel a: "4.1%" seems to belong to the untreated control (Co.). That is not a substance, so it is left out.
Fig. 5 LJ2 inhibits cell death induced by microtubule destabilization and hydroxamic acid-based deacetylase (HDAC) inhibition. a Effect of the irreversible Caspase-2 inhibitors LJ2 against vincristine-induced cell death. HeLa cells were pretreated for 1 h with the indicated doses of LJ2, Q-VD-OPh, or Q-LETD-OPh, then treated with vincristine (VCR) as in Fig. 2, then incubated with propidium iodide at 2 μg/mL for 10 min and analyzed by flow cytometry. Histogram data are mean ± SD (n = 3, *p value < 0.01). b Effect of Caspases-inhibitors against Panobistat (LBH589)-induced cell death. […]

Details of series [2]: method as in PMID 31870950, PMID 31887369. The settings on record: cited from earlier work.
Details of series [3]: method as in PMID 21881605. As to conditions: cited from earlier work.
The target in the next series is T1, recombinant human Casp3 (Homo sapiens, UniProt P42574).
T1 sequence (P42574 29-175 limits assumed): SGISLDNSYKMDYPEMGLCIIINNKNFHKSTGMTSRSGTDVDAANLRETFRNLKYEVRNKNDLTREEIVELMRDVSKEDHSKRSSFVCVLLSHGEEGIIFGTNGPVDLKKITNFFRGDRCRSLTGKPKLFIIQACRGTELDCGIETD
T1 sequence (P42574 176-277 limits assumed): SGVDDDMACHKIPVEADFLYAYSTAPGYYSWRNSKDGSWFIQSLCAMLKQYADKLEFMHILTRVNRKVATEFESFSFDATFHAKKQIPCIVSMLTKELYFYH
As to the kind of experiment: Enzyme mechanistic studies (Ki, k3, k3/KI), Caspase-3. Format: biochemical. The settings on record: irreversible inhibitors, progress curve method. The protocol:
(§2) For reversible inhibitors, the mechanisms of inhibition were determined by varying substrate and inhibitor concentrations and using Lineweaver−Burk representations to determine the inhibition constants Ki of competitive inhibitors (Ki = [E][I]/[EI]). For suicide inhibitors, inactivation can be represented by the minimum kinetic scheme (Eq. 2), where E and I are the free forms of enzyme and inhibitor, E * I a kinetic chimera of the Michaelis complex and E − I the covalent complex (inactivated enzyme).2 E+I⇄KIE*I→k3E−I
(§3) KI and k3 are the kinetic constants characterizing the inactivation process and the k3/KI ratio is an index of the inhibitory potency. The first-order rate constant, k3, and the apparent dissociation constant, KI, were determined for Caspase-2 and -3 using the progress curve method. Briefly, the enzyme activities were measured continuously for 120 min. To determine the kinetic parameters, progress curves were obtained at several inhibition concentrations using fixed substrate concentration. The product released for each inhibitor concentration was plotted versus the time following Eq. 3 where the constant π depended on [I]’, a modified inhibitor concentration due to substrate competition, according to Eq. 4. [I]’ is defined by Eq. 5, where KM was Michaelis constant for the enzymatic hydrolysis of the appropriate fluorogenic substrate. The ratio k3/KI was obtained by fitting the experimental data to the equations (F.U., fluorescence unit):3 F.U.=∫0tvidt+F.U0−vo×e^−π×t/π+F.U.0 4 π=k3×[I]^′/KI+[I]^′ 5 [I]^′=[I]/1+S/KM
Linear and nonlinear regression fits of the experimental data to the equations were performed with KaleidaGraph software.

The next series has as its target T2, recombinant human Casp2 (Homo sapiens, UniProt P42575).
T2 sequence (P42575 170-325 limits assumed): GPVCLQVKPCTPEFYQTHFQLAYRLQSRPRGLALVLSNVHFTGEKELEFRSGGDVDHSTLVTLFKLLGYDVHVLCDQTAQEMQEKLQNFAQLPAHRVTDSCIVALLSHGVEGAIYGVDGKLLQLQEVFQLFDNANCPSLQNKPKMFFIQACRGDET
T2 sequence (P42575 348-452 limits assumed): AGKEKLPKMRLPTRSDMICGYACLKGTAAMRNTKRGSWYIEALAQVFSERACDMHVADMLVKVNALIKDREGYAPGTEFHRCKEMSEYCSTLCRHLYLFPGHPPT
Put plainly: Enzyme mechanistic studies (Ki, k3, k3/KI), Caspase-2. The series is classed as biochemical. As to conditions: irreversible inhibitors, progress curve method. The method, then:
as §2, §3
Linear and nonlinear regression fits of the experimental data to the equations were performed with KaleidaGraph software. The experimental conditions were [Caspase-2]0 = 0.2 nM, [Ac-VDVAD-AMC]0 = 25 µM and [Caspase-3]0 = 0.1 nM, [Ac-DEVD-AMC]0 = 10 µM; [I]0 = 0–100 µM.

Each structure is given as a SMILES string.

What is called inhibition is how much of the control response was suppressed.

For the molecule `CCO[C@@H]1OC(=O)C[C@@H]1NC(=O)[C@@H]1CCCN1C(=O)[C@@H](NC(=O)c1ccc(N)c(Cl)c1)C(C)(C)C` [Belnacasan, (S)-1-((S)-2-{[1-(4-amino-3-chloro-phenyl)-methanoyl]-amino}-3,3-dimethyl-butanoyl)-pyrrolidine-2-carboxylic acid ((2R,3S)-2-ethoxy-5-oxo-tetrahydro-furan-3-yl)-amide], the “effect against Panobistat (LBH589)-induced cell death” value in series [1] is “did not affect cell death”.
For the molecule `CC(C)[C@H](NC(=O)c1ccc2ccccc2n1)C(=O)N[C@@H](CC(=O)O)C(=O)COc1c(F)cccc1F` [Q-VD-OPh], the “inhibition of vincristine-induced cell death” value in the series on HeLa cells (inhibitor 30 µM) is on record as above 90%. In series [1], the “effect against Panobistat (LBH589)-induced cell death” value is on record as “strongly inhibited cell death”.
In the case of `C[C@H](NC(=O)C(=O)Nc1ccccc1C(C)(C)C)C(=O)N[C@@H](CC(=O)O)C(=O)COc1c(F)c(F)cc(F)c1F` [Emricasan], in series [2], the “efficacy in large clinical phase 3 studies for the treatment of NASH” value is “failed to demonstrate efficacy” and the “toxicity on chronic administration in humans” value was “not toxic nor carcinogenic”. In addition, the inhibition at 10 µM in the series with HeLa cells (Homo sapiens, inhibitor 10 µM) was 95%.
With `COC(=O)CC(NC(=O)[C@H](C)NC(=O)C(NC(=O)[C@H](CC(=O)OC)NC(=O)[C@@H](NC(=O)c1ccc2ccccc2n1)C(C)C)C(C)C)C(=O)COc1c(F)cccc1F` (stereo in doubt) [TRP601, Quinolin-2-carbonyl-VD(OMe)VAD(OMe)-CH2-O(2,6F2)Ph, reference compound], the neuroprotection entry in series [3] (after intraperitoneal and intraveinous administration) was “confer neuroprotection”. In series [3], the “Casp2 in the brain” value is “inhibit Casp2 in the brain”; the “toxicity in regulatory rodent and non-rodent studies” value is on record as “non-toxic”. For the same molecule, at recombinant human Casp3, the “Casp3 k3” value is 4,24 ms^−1, the “Casp3 k3/KI” value is 25 126 M^−1 s^−1 and the KI (inactivation) was determined as 209 nM. At recombinant human Casp2, the “Casp2 k3” value is recorded as 5,56 ms^−1 and the KI (inactivation) turned out to be 378 nM.
